Measured values: ChEMBL document CHEMBL1201862, “PubChem BioAssay data set” (2004)
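Dose response: 5 concentrations. Exposure: 48 h. Format: 96-well plates. Endpoint: linear interpolation; highest concentration if not reached. GI50 is the concentration that inhibits growth by half.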 Active and inactive are the calls of the source. No stated cut-off is given here; in the data, active = GI50 up to about 1.1 µM and inactive = higher.

What was measured:
Assay in all cases: NCI-60 cell line screen, 48 h
786-0 = test system: 786-0
A498 = test system: A498
A549 = test system: A549
ACHN = test system: ACHN
BT-549 = test system: BT-549
CAKI-1 = test system: CAKI-1
CCRF-CEM = test system: CCRF-CEM
COLO 205 = test system: COLO 205
DU-145 = test system: DU-145
EKVX = test system: EKVX
HCT-116 = test system: HCT-116
HCT-15 = test system: HCT-15
HL-60 = test system: HL-60
HOP-62 = test system: HOP-62
HOP-92 = test system: HOP-92
HT-29 = test system: HT-29
Hs-578T = test system: Hs-578T
IGROV-1 = test system: IGROV-1
KM12 = test system: KM12
LOX IMVI = test system: LOX IMVI
M14 = test system: M14
MCF7 = test system: MCF7
MDA-MB-231 = test system: MDA-MB-231
MDA-MB-435 = test system: MDA-MB-435
MDA-N = test system: MDA-N
Malme-3M = test system: Malme-3M
NCI-H226 = test system: NCI-H226
NCI-H23 = test system: NCI-H23
NCI-H460 = test system: NCI-H460
NCI-H522 = test system: NCI-H522
NCI/ADR-RES = test system: NCI/ADR-RES
OVCAR-3 = test system: OVCAR-3
OVCAR-4 = test system: OVCAR-4
OVCAR-5 = test system: OVCAR-5
OVCAR-8 = test system: OVCAR-8
PC-3 = test system: PC-3
RPMI-8226 = test system: RPMI-8226
RXF 393 = test system: RXF 393
SF-268 = test system: SF-268
SF-295 = test system: SF-295
SF-539 = test system: SF-539
SK-MEL-28 = test system: SK-MEL-28
SK-MEL-2 = test system: SK-MEL-2
SK-MEL-5 = test system: SK-MEL-5
SK-OV-3 = test system: SK-OV-3
SN12C = test system: SN12C
SNB-19 = test system: SNB-19
SNB-75 = test system: SNB-75
SW-620 = test system: SW-620
T47D = test system: T47D
TK-10 = test system: TK-10
U-251 = test system: U-251
UACC-62 = test system: UACC-62
UO-31 = test system: UO-31
HCC 2998 = test system: HCC 2998
UACC-257 = test system: UACC-257
K562 = test system: K562
MOLT-4 = test system: MOLT-4

O=C1c2ccccc2C(O)(O)C1(O)C1(O)C(=O)c2ccccc2C1(O)O (stereo not given) was tested, and the GI50 (786-0) was 38.9 µM (inactive), the GI50 (A498) was > 100 µM (inactive) and the GI50 (A549) was 30.1 µM (inactive). For the same compound, the GI50 (ACHN) was 21.3 µM (inactive), the GI50 (BT-549) was 55.6 µM (inactive) and the GI50 (CAKI-1) was 29.6 µM (inactive). The GI50 (CCRF-CEM) was 16.9 µM (inactive), the GI50 (COLO 205) was 20.7 µM (inactive) and the GI50 (DU-145) was 57.3 µM (inactive). For the same compound, the GI50 (EKVX) was 36.3 µM (inactive), the GI50 (HCT-116) was 23.6 µM (inactive) and the GI50 (HCT-15) was 21.8 µM. The GI50 (HL-60) was 18.9 µM (inactive), the GI50 (HOP-62) was 23.4 µM (inactive) and the GI50 (HOP-92) was 37.6 µM (inactive). For the same compound, the GI50 (HT-29) was > 100 µM (inactive), the GI50 (Hs-578T) was > 100 µM (inactive) and the GI50 (IGROV-1) was 41.7 µM (inactive). The GI50 (KM12) was 39.6 µM (inactive), the GI50 (LOX IMVI) was 23 µM (inactive) and the GI50 (M14) was 35 µM (inactive). For the same compound, the GI50 (MCF7) was 16.8 µM (inactive), the GI50 (MDA-MB-231) was > 100 µM (inactive) and the GI50 (MDA-MB-435) was 16.6 µM (inactive). The GI50 (MDA-N) was 21.7 µM (inactive), the GI50 (Malme-3M) was 22.1 µM (inactive) and the GI50 (NCI-H226) was > 100 µM (inactive). For the same compound, the GI50 (NCI-H23) was 20.8 µM (inactive), the GI50 (NCI-H460) was 18.8 µM (inactive) and the GI50 (NCI-H522) was 19.4 µM (inactive). The GI50 (NCI/ADR-RES) was 69.7 µM (inactive), the GI50 (OVCAR-3) was 25.1 µM (inactive) and the GI50 (OVCAR-4) was 45.5 µM (inactive). For the same compound, the GI50 (OVCAR-5) was 65.2 µM (inactive), the GI50 (OVCAR-8) was 35.9 µM (inactive) and the GI50 (PC-3) was > 100 µM (inactive). For the same compound, the GI50 (RPMI-8226) was 51.2 µM (inactive), the GI50 (RXF 393) was 26.6 µM (inactive) and the GI50 (SF-268) was > 100 µM (inactive). The GI50 (SF-295) was 34.8 µM (inactive), the GI50 (SF-539) was 24.2 µM (inactive) and the GI50 (SK-MEL-28) was > 100 µM (inactive). For the same compound, the GI50 (SK-MEL-2) was > 100 µM (inactive), the GI50 (SK-MEL-5) was 20.1 µM (inactive) and the GI50 (SK-OV-3) was > 100 µM (inactive). The GI50 (SN12C) was 16.1 µM (inactive), the GI50 (SNB-19) was 91.8 µM (inactive) and the GI50 (SNB-75) was 15.6 µM (inactive). The GI50 (SW-620) was 35.3 µM (inactive), the GI50 (T47D) was 23.1 µM (inactive) and the GI50 (TK-10) was 23 µM (inactive). For the same compound, the GI50 (U-251) was 37.2 µM (inactive), the GI50 (UACC-62) was 86.9 µM (inactive) and the GI50 (UO-31) was 19.6 µM (inactive).
In the case of O=C(/C=C/c1ccc(OCc2ccccc2)cc1)NCc1ccc(C(=O)NCCc2ccccc2)cc1, the GI50 (786-0) is reported as > 100 µM (inactive), the GI50 (A498) is reported as > 100 µM (inactive) and the GI50 (A549) is reported as > 100 µM (inactive). The GI50 (ACHN) was > 100 µM (inactive), the GI50 (BT-549) was > 100 µM (inactive) and the GI50 (CAKI-1) was > 100 µM (inactive). The GI50 (CCRF-CEM) was 11.4 µM (inactive), the GI50 (COLO 205) was > 100 µM (inactive) and the GI50 (DU-145) was > 100 µM (inactive). For the same compound, the GI50 (EKVX) was 23.3 µM (inactive), the GI50 (HCC 2998) was > 100 µM (inactive) and the GI50 (HCT-116) was > 100 µM (inactive). The GI50 (HCT-15) was over 100 µM, the GI50 (HOP-62) was 89.1 µM (inactive) and the GI50 (HOP-92) was > 100 µM (inactive). For the same compound, the GI50 (HT-29) was > 100 µM (inactive), the GI50 (Hs-578T) was > 100 µM (inactive) and the GI50 (IGROV-1) was > 100 µM (inactive). The GI50 (KM12) was > 100 µM (inactive), the GI50 (LOX IMVI) was > 100 µM (inactive) and the GI50 (M14) was > 100 µM (inactive). For the same compound, the GI50 (MCF7) was > 100 µM (inactive), the GI50 (MDA-MB-231) was > 100 µM (inactive) and the GI50 (MDA-MB-435) was > 100 µM (inactive). The GI50 (MDA-N) was > 100 µM (inactive), the GI50 (Malme-3M) was > 100 µM (inactive) and the GI50 (NCI-H226) was > 100 µM (inactive). The GI50 (NCI-H23) was > 100 µM (inactive), the GI50 (NCI-H460) was > 100 µM (inactive) and the GI50 (NCI-H522) was > 100 µM (inactive). For the same compound, the GI50 (NCI/ADR-RES) was > 100 µM (inactive), the GI50 (OVCAR-3) was > 100 µM (inactive) and the GI50 (OVCAR-4) was > 100 µM (inactive). For the same compound, the GI50 (OVCAR-5) was > 100 µM (inactive), the GI50 (OVCAR-8) was > 100 µM (inactive) and the GI50 (PC-3) was > 100 µM (inactive). The GI50 (RXF 393) was 64.1 µM (inactive), the GI50 (SF-268) was > 100 µM (inactive) and the GI50 (SF-295) was > 100 µM (inactive). For the same compound, the GI50 (SF-539) was > 100 µM (inactive), the GI50 (SK-MEL-28) was > 100 µM (inactive) and the GI50 (SK-MEL-2) was > 100 µM (inactive). The GI50 (SK-MEL-5) was > 100 µM (inactive), the GI50 (SK-OV-3) was > 100 µM (inactive) and the GI50 (SN12C) was > 100 µM (inactive). The GI50 (SNB-19) was > 100 µM (inactive), the GI50 (SNB-75) was > 100 µM (inactive) and the GI50 (SW-620) was > 100 µM (inactive). For the same compound, the GI50 (T47D) was > 100 µM (inactive), the GI50 (TK-10) was > 100 µM (inactive) and the GI50 (U-251) was > 100 µM (inactive). The GI50 (UACC-257) was > 100 µM (inactive), the GI50 (UACC-62) was > 100 µM (inactive) and the GI50 (UO-31) was > 100 µM (inactive).
For O=C(n1c(=O)n(-c2ccc([N+](=O)[O-])cc2)c(=O)n1C(=O)C(Cl)(Cl)Cl)C(Cl)(Cl)Cl, the GI50 (786-0) was > 100 µM (inactive), the GI50 (A498) was > 100 µM (inactive) and the GI50 (A549) was > 100 µM (inactive). For the same compound, the GI50 (ACHN) was > 100 µM (inactive), the GI50 (BT-549) was > 100 µM (inactive) and the GI50 (CAKI-1) was > 100 µM (inactive). The GI50 (CCRF-CEM) was > 100 µM (inactive), the GI50 (COLO 205) was > 100 µM (inactive) and the GI50 (DU-145) was > 100 µM (inactive). The GI50 (EKVX) was > 100 µM (inactive), the GI50 (HCC 2998) was > 100 µM (inactive) and the GI50 (HCT-116) was > 100 µM (inactive). For the same compound, the GI50 (HCT-15) was over 100 µM, the GI50 (HL-60) was > 100 µM (inactive) and the GI50 (HOP-62) was > 100 µM (inactive). The GI50 (HT-29) was > 100 µM (inactive), the GI50 (Hs-578T) was > 100 µM (inactive) and the GI50 (IGROV-1) was > 100 µM (inactive). For the same compound, the GI50 (K562) was > 10 µM (inactive), the GI50 (KM12) was > 100 µM (inactive) and the GI50 (LOX IMVI) was > 100 µM (inactive). The GI50 (M14) was > 100 µM (inactive), the GI50 (MCF7) was 87.3 µM (inactive) and the GI50 (MDA-MB-231) was > 100 µM (inactive). The GI50 (MDA-MB-435) was > 100 µM (inactive), the GI50 (MDA-N) was > 100 µM (inactive) and the GI50 (MOLT-4) was > 10 µM (inactive). For the same compound, the GI50 (Malme-3M) was > 100 µM (inactive), the GI50 (NCI-H226) was > 100 µM (inactive) and the GI50 (NCI-H23) was > 100 µM (inactive). For the same compound, the GI50 (NCI-H460) was > 100 µM (inactive), the GI50 (NCI-H522) was > 100 µM (inactive) and the GI50 (NCI/ADR-RES) was > 100 µM (inactive). The GI50 (OVCAR-3) was > 100 µM (inactive), the GI50 (OVCAR-4) was > 100 µM (inactive) and the GI50 (OVCAR-5) was > 100 µM (inactive). For the same compound, the GI50 (OVCAR-8) was > 100 µM (inactive), the GI50 (PC-3) was > 100 µM (inactive) and the GI50 (RPMI-8226) was > 100 µM (inactive). The GI50 (RXF 393) was > 100 µM (inactive), the GI50 (SF-268) was > 100 µM (inactive) and the GI50 (SF-295) was > 100 µM (inactive). For the same compound, the GI50 (SF-539) was > 100 µM (inactive), the GI50 (SK-MEL-28) was > 100 µM (inactive) and the GI50 (SK-MEL-2) was > 100 µM (inactive). The GI50 (SK-MEL-5) was > 100 µM (inactive), the GI50 (SK-OV-3) was > 100 µM (inactive) and the GI50 (SN12C) was > 100 µM (inactive). For the same compound, the GI50 (SNB-19) was > 100 µM (inactive), the GI50 (SNB-75) was > 100 µM (inactive) and the GI50 (SW-620) was > 100 µM (inactive). For the same compound, the GI50 (T47D) was > 100 µM (inactive), the GI50 (TK-10) was > 100 µM (inactive) and the GI50 (U-251) was > 100 µM (inactive). The GI50 (UACC-257) was > 100 µM (inactive), the GI50 (UACC-62) was > 100 µM (inactive) and the GI50 (UO-31) was > 100 µM (inactive).
